ChEMBL document CHEMBL2396652 (Bioorg Med Chem Lett, 2013)
Active and inactive are the calls of the source. The rule behind the calls is not given here.

Tests used:
[1] = biological target: T1, Mu-type opioid receptor (Homo sapiens, UniProt P35372); experiment: Agonist activity at mu opioid receptor (unknown origin) expressed CHO cells assessed as stimulation of [35S]-GTP[gammaS] binding relative to DAMGO; format: cell-based
[2] = biological target: T1, Mu-type opioid receptor; experiment: Agonist activity at mu opioid receptor (unknown origin) expressed CHO cells assessed as stimulation of [35S]-GTP[gammaS] binding; format: cell-based
[3] = species: Homo sapiens; experiment: Selectivity ratio of Ki for kappa opioid receptor (unknown origin) to Ki for mu opioid receptor (unknown origin)
[4] = species: Homo sapiens; experiment: Selectivity ratio of Ki for delta opioid receptor (unknown origin) to Ki for mu opioid receptor (unknown origin)
[5] = biological target: T1, Mu-type opioid receptor; experiment: Antagonist activity at mu opioid receptor (unknown origin) expressed CHO cells assessed as inhibition of [35S]-GTP[gammaS] binding; format: cell-based
[6] = biological target: T1, Mu-type opioid receptor; experiment: Agonist activity at mu opioid receptor (unknown origin) expressed CHO cells assessed as stimulation of [35S]-GTP[gammaS] binding at 10 uM relative to DAMGO; format: cell-based

T1 sequence (P35372 whole entry): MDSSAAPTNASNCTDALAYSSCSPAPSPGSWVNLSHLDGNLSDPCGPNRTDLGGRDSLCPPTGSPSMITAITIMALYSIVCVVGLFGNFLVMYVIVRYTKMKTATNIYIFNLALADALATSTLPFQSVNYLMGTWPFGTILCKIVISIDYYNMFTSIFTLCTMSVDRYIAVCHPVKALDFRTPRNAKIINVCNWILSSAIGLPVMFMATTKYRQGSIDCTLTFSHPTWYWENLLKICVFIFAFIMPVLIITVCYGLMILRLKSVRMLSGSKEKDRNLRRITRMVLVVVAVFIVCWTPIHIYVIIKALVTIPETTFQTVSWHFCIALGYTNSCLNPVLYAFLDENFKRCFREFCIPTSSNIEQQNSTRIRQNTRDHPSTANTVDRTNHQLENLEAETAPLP

O=C(N[C@@]12CCC(=O)[C@@H]3Oc4c(O)ccc5c4[C@@]31CCN(CC1CC1)[C@@H]2C5)c1ccccc1
Emax [1]: 5.79%
EC50 [2]: 7.2 nM
Ratio Ki [3]: 0.03
Ratio Ki [4]: 13

COc1cccc2c1[C@]13CCN(CC4CC4)[C@H](C2)[C@]1(OC)CCC(=O)C3
Ratio Ki [3]: 45
Ratio Ki [4]: 40

O=C(N[C@@]12CCC(=O)[C@@H]3Oc4c(O)ccc5c4[C@@]31CCN(CC1CC1)[C@@H]2C5)c1cc2ccccc2cn1
inhibition [5]: Active
Emax [6]: 2.84%
Ratio Ki [3]: 0.07
Ratio Ki [4]: 7.2

O=C(N[C@@]12CCC(=O)[C@@H]3Oc4c(O)ccc5c4[C@@]31CCN(CC1CC1)[C@@H]2C5)c1ccc2ccccc2n1
Emax [1]: 34.4%
EC50 [2]: 38.8 nM
Ratio Ki [3]: 0.03
Ratio Ki [4]: 1.7

O=C(N[C@@]12CCC(=O)[C@@H]3Oc4c(O)ccc5c4[C@@]31CCN(CC1CC1)[C@@H]2C5)c1ccc2ccccc2c1
Emax [1]: 16.5%
EC50 [2]: 11.1 nM
Ratio Ki [3]: 0.05
Ratio Ki [4]: 1.7

O=C(N[C@@]12CCC(=O)[C@@H]3Oc4c(O)ccc5c4[C@@]31CCN(CC1CC1)[C@@H]2C5)c1cnc2ccccc2c1
Emax [1]: 15.8%
EC50 [2]: 2.81 nM
Ratio Ki [3]: 0.12
Ratio Ki [4]: 1.3

O=C(N[C@@]12CCC(=O)[C@@H]3Oc4c(O)ccc5c4[C@@]31CCN(CC1CC1)[C@@H]2C5)c1ccccn1
inhibition [5]: Active
Emax [6]: 0.9%
Ratio Ki [3]: 0.24
Ratio Ki [4]: 63

O=C(N[C@@]12CCC(=O)[C@@H]3Oc4c(O)ccc5c4[C@@]31CCN(CC1CC1)[C@@H]2C5)c1cccnc1
inhibition [5]: Active
Emax [6]: 5.09%
Ratio Ki [3]: 0.21
Ratio Ki [4]: 53

O=C(N[C@@]12CCC(=O)[C@@H]3Oc4c(O)ccc5c4[C@@]31CCN(CC1CC1)[C@@H]2C5)c1ccncc1
Emax [1]: 7.74%
EC50 [2]: 1.67 nM
Ratio Ki [3]: 0.4
Ratio Ki [4]: 13
